Measured values published in patent US9040527B2, “Pyrimidinediamine kinase inhibitors” (Rigel Pharmaceuticals, Inc., priority 2008, dated 2015).
pIC50: −log10 of the molar value.

Legend:
PLK1 [1] = molecular target: T1, PLK1 (Homo sapiens, UniProt P53350); assay: Cellular PLK1 assay in K562 cells overexpressing CDC25C; format: cell-based; set-up: endogenous in cells; host or cells: K562 (human chronic myelogenous leukemia) overexpressing CDC25C, nocodazole-arrested; details: nocodazole arrested, cdc25c p-Ser198 readout
T1 sequence (P53350 whole entry): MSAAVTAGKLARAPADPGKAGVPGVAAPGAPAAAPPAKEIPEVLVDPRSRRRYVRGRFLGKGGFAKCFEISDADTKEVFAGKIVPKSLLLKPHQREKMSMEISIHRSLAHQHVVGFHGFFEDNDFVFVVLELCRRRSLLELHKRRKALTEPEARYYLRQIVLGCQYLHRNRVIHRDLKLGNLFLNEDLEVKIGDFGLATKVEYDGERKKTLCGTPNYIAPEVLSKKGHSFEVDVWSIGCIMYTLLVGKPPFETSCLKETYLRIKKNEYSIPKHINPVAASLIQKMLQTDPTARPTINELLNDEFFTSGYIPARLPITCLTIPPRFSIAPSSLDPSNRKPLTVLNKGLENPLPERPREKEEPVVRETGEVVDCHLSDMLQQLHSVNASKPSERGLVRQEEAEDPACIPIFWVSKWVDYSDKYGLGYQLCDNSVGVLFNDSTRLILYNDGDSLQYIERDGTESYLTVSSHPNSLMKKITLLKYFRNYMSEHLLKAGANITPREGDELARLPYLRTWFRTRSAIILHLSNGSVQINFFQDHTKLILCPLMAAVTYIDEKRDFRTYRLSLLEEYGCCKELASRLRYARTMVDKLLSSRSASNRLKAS
Outline: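 K562 cells overexpressing CDC25C were arrested with 333 nM nocodazole for 18 h at 37 °C, then exposed to compound at 8 points from 10 μM to 0.005 μM in duplicate for 120 min. After fixation and permeabilization, cells were stained for cdc25c pSer198 with a PE secondary and read by flow cytometry, 10,000 cells per well.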

PLK1 [2] = molecular target: T1, PLK1; assay: In vitro PLK1 ELISA assay (biochemical); set-up: purchased Cell Signalling 7728; details: for IC50: ELISA, CHK2-derived peptide substrate, read-out: PLK1 IC50 (μM) biochemical assay
Outline: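 Commercial PLK1 phosphorylates neutravidin-captured biotinylated CHK2 peptide for 45 min at room temperature in HEPES pH 7.2 with Mg2+/Mn2+/DTT, compounds at 10 μM to 0.005 μM. Phospho-CHK2(T68) antibody plus HRP secondary gives chemiluminescent read-out used for IC50.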

[3] = read-out: IC50 in biochemical in vitro PLK1 ELISA assay (less than 10 μM)
[4] = read-out: IC50 in biochemical ELISA assay (less than 0.01 μM)

Row | Compound | IC50 (PLK1 [1]) | IC50 (PLK1 [2]) | pIC50 (PLK1 [2]; [3]) | pIC50 (PLK1 [2]; [4])
1 | CN1CCN(c2ccc(C3CC3)c(Nc3ncc(F)c(Nc4ccc5c(n4)NCCO5)n3)c2)CC1 [compound 34, N2-(2-cyclopropyl-5-(4-methylpiperazin-1-yl)phenyl)-N4-(3,4-dihydro-2H-pyrido[3,2-b][1,4]oxazin-6-yl)-5-fluoropyrimidine-2,4-diamine] | < 0.5 µM | < 0.5 µM | > 5.00 | 
2 | CN1CCN(c2cccc(Nc3ncc(F)c(N(c4ccc5c(n4)NCCO5)C4CCCC4)n3)c2)CC1 [compound 54, N4-cyclopentyl-N4-(3,4-dihydro-2H-pyrido[3,2-b][1,4]oxazin-6-yl)-5-fluoro-N2-(3-(4-methylpiperazin-1-yl)phenyl)pyrimidine-2,4-diamine] | ≥ 10 µM | 5 to 10 µM | > 5.00 | 
3 | CCCN1C(=O)COc2ccc(Nc3nc(Nc4ccc(N5CC6CC5CN6C(C)=O)c(C)c4)ncc3C)nc21 (stereo not drawn) [compound 38, 6-(2-(4-(5-acetyl-2,5-diazabicyclo[2.2.1]heptan-2-yl)-3-methylphenyl-amino)-5-methyl-pyrimidin-4-ylamino)-4-propyl-2H-pyrido[3,2-b][1,4]oxazin-3(4H)-one] | 0.5 to 5 µM | < 0.5 µM | > 5.00 | 
4 | CCCN1C(=O)COc2ccc(Nc3nc(Nc4ccc(N5CCN(C)CC5)c(C)c4)ncc3C)nc21 [compound 97, 6-(5-methyl-2-(3-methyl-4-(4-methylpiperazin-1-yl)phenylamino)pyrimidin-4-ylamino)-4-propyl-2H-pyrido[3,2-b][1,4]oxazin-3(4H)-one] | 0.5 to 5 µM | < 0.5 µM | > 5.00 | 
5 | Cc1cnc(Nc2cccc(N3CCN(C)CC3)c2)nc1Nc1ccc2c(n1)NC(=O)CO2 [compound 51, 6-(5-methyl-2-(3-(4-methylpiperazin-1-yl)phenylamino)pyrimidin-4-ylamino)-2H-pyrido[3,2-b][1,4]oxazin-3(4H)-one] | 0.5 to 5 µM | < 0.5 µM | > 5.00 | > 8.00
6 | CC(C)c1ccc(N2CCN(C)CC2)cc1Nc1ncc(F)c(Nc2ccc3c(n2)NC(=O)CO3)n1 [compound 43, 6-(5-fluoro-2-(2-isopropyl-5-(4-methylpiperazin-1-yl)phenylamino)pyrimidin-4-ylamnino)-2H-pyrido[3,2-b][1,4]oxazin-3(4H)-one] | < 0.5 µM | < 0.5 µM | > 5.00 | 
7 | CN1CCN(c2cccc(Nc3ncc(F)c(Nc4ccc5c(c4)NC(=O)CO5)n3)c2)CC1 [compound 17, 6-(5-fluoro-2-(3-(4-methylpiperazin-1-yl)phenylamino)pyrimidin-4-ylamino)-2H-benzo[b][1,4]oxazin-3(4H)-one] | 0.5 to 5 µM | < 0.5 µM | > 5.00 | > 8.00
8 | CC(C)c1cc(Nc2ncc(F)c(Nc3ccc4c(n3)NCCO4)n2)cc(N2CCN(C)CC2)c1 [compound 46, N4-(3,4-dihydro-2H-pyrido[3,2-b][1,4]oxazin-6-yl)-5-fluoro-N2-(3-isopropyl-5-(4-methylpiperazin-1-yl)phenyl)pyrimidine-2,4-diamine] | 0.5 to 5 µM | < 0.5 µM | > 5.00 | 
9 | CC(C)c1ccc(N2CCN(C)CC2)cc1Nc1ncc(F)c(Nc2ccc3c(n2)NCCO3)n1 [compound 27, N4-(3,4-dihydro-2H-pyrido[3,2-b][1,4]oxazin-6-yl)-5-fluoro-N2-(2-isopropyl-5-(4-methylpiperazin-1-yl)phenyl)pyrimidine-2,4-diamine] | 0.5 to 5 µM | < 0.5 µM | > 5.00 | 
10 | CCN1C(=O)COc2ccc(Nc3nc(Nc4ccc(N5CCN(C)CC5)nc4)ncc3C)nc21 [compound 101, 4-ethyl-6-(5-methyl-2-(6-(4-methylpiperazin-1-yl)pyridin-3-ylamino)pyrimidin-4-ylamino)-2H-pyrido[3,2-b][1,4]oxazin-3(4H)-one] | 0.5 to 5 µM | < 0.5 µM | > 5.00 | 
11 | CN1CCN(c2cccc(Nc3ncc(F)c(Nc4ccc5c(c4)NCCO5)n3)c2)CC1 [compound 20, N4-(3,4-dihydro-2H-benzo[b][1,4]oxazin-6-yl)-5-fluoro-N2-(3-(4-methylpiperazin-1-yl)phenyl)pyrimidine-2,4-diamine] | 0.5 to 5 µM | < 0.5 µM | > 5.00 | 
12 | CCOc1ccc(N2CCN(C)CC2)cc1Nc1ncc(F)c(Nc2ccc3c(n2)NC(=O)CO3)n1 [compound 49, 6-(2-(2-ethoxy-5-(4-methylpiperazin-1-yl)phenylamino)-5-fluoro-pyrimidin-4-ylamino)-2H-pyrido[3,2-b][1,4]oxazin-3(4H)-one] | < 0.5 µM | < 0.5 µM | > 5.00 | > 8.00

Continued, values first:

Row | IC50 (PLK1 [1]) | IC50 (PLK1 [2]) | pIC50 (PLK1 [2]; [3]) | pIC50 (PLK1 [2]; [4]) | Compound
13 | ≥ 10 µM | ≥ 10 µM |  |  | COc1ccc(CN2C(=O)COc3ccc(Nc4nc(Nc5cccc(N6CCN(C)CC6)c5)ncc4F)nc32)cc1 [compound 123, 6-(5-fluoro-2-(3-(4-methylpiperazin-1-yl)phenylamino)pyrimidin-4-ylamino)-4-(4-methoxybenzyl)-2H-pyrido[3,2-b][1,4]oxazin-3(4H)-one]
14 | 0.5 to 5 µM | 5 to 10 µM | > 5.00 |  | CN1CCN(c2cccc(Nc3ncc(F)c(Nc4ccc5c(n4)N(Cc4ccc(F)cc4)C(=O)CO5)n3)c2)CC1 [compound 132, 6-(5-fluoro-2-(3-(4-methylpiperazin-1-yl)phenylamino)pyrimidin-4-ylamino)-4-(4-fluorobenzyl)-2H-pyrido[3,2-b][1,4]oxazin-3(4H)-one]
15 | 0.5 to 5 µM | < 0.5 µM | > 5.00 |  | Cc1cnc(Nc2cccc(N3CCN(C)CC3)c2)nc1Nc1ccc2c(n1)N(Cc1ccc(F)cc1)C(=O)CO2 [compound 133, 4-(4-fluorobenzyl)-6-(5-methyl-2-(3-(4-methylpiperazin-1-yl)phenylamino)pyrimidin-4-ylamino)-2H-pyrido[3,2-b][1,4]oxazin-3(4H)-one]
16 | 5 to 10 µM | 0.5 to 5 µM | > 5.00 |  | CCN1C(=O)COc2ccc(Nc3nc(Nc4ccc(N5CCN(S(C)(=O)=O)CC5)cc4)ncc3C)cc21 [compound 196, 4-ethyl-6-(5-methyl-2-(4-(4-(methyl-sulfonyl)piperazin-1-yl)phenylamino)pyrimidin-4-ylamino)-2H-benzo[b][1,4]oxazin-3(4H)-one]
17 | 0.5 to 5 µM | < 0.5 µM | > 5.00 |  | CN1CCN(c2cccc(Nc3ncc(F)c(Nc4ccc5c(n4)NC(=O)C(C)(C)O5)n3)c2)CC1 [compound 161, 6-(5-fluoro-2-(3-(4-methylpiperazin-1-yl)phenylamino)pyrimidin-4-ylamino)-2,2-dimethyl-2H-pyrido[3,2-b][1,4]oxazin-3(4H)-one]
18 | 0.5 to 5 µM | ≥ 10 µM |  |  | Cc1cc(Nc2ncc(F)c(Nc3ccc4c(n3)N(Cc3ccccc3)C(=O)CO4)n2)ccc1N1CCN(C)CC1 [compound 118, 4-benzyl-6-(5-fluoro-2-(3-methyl-4-(4-methylpiperazin-1-yl)phenylamino)pyrimidin-4-ylamino)-2H-pyrido[3,2-b][1,4]oxazin-3(4H)-one]
19 | 0.5 to 5 µM | < 0.5 µM | > 5.00 |  | CN1CCN(c2cccc(Nc3ncc(F)c(Nc4ccc5c(n4)N(CC4CCC4)C(=O)CO5)n3)c2)CC1 [compound 109, 4-(cyclobutylmethyl)-6-(5-fluoro-2-(3-(4-methylpiperazin-1-yl)phenylamino)pyrimidin-4-ylamino)-2H-pyrido[3,2-b][1,4]oxazin-3(4H)-one]
20 | ≥ 10 µM | ≥ 10 µM |  |  | Cc1cc(Nc2ncc(C)c(Nc3ccc4c(n3)N(C3CCCC3)C(=O)CO4)n2)ccc1N1CCN(C)CC1 [compound 117, 4-cyclopentyl-6-(5-methyl-2-(3-methyl-4-(4-methylpiperazin-1-yl)phenylamino)pyrimidin-4-ylamino)-2H-pyrido[3,2-b][1,4]oxazin-3(4H)-one]
21 | 0.5 to 5 µM | < 0.5 µM | > 5.00 |  | CN1CCN(c2cccc(Nc3ncc(F)c(Nc4ccc5c(n4)N(CC4CC4)C(=O)CO5)n3)c2)CC1 [compound 108, 4-(cyclopropylmethyl)-6-(5-fluoro-2-(3-(4-methylpiperazin-1-yl)phenylamino)pyrimidin-4-ylamino)-2H-pyrido[3,2-b][1,4]oxazin-3(4H)-one]
